In US10617677B2, “Nuclear transport modulators and uses thereof” (Biogen MA Inc., priority 2012, dated 2020):
“Also recorded” adds a separate entry of the source.

How the values were obtained:
[1] = test system: BCCI injury to the medial frontal cortex; test: Bilateral controlled cortical impact (BCCI) injury in rats; assay type: in vivo
Experimental: Bilateral controlled cortical impact (BCCI) injury to the medial frontal cortex (MFC) of male Sprague Dawley rats was induced by a cortical contusion device. After CCI any cortical surface hemorrhaging was controlled, and the fascia and scalp were sutured. Sham-operated rats were anesthetized, mounted in the stereotaxic apparatus, and a craniotomy was performed.
Progesterone 16 mg/mL was dissolved in 22.5% 2-hydroxypropyl-β-cyclodextrin and the initial injection (16 mg/kg) was given i.p. 1 h after injury. The remaining injections (all 16 mg/kg) were given subcutaneously at 6 h post-injury and continued for 5 days after injury. Progesterone injections were made at a concentration of 1 mL/kg. Progesterone was used as a control.
Compound 1 0.2, 0.4, and 0.6 mg/mL was suspended in vehicle (0.6% w/v Pluronic® F-68 and 0.6% w/v PVP K-29/32 in water) and administered p.o at a concentration of 10 mL/kg, 16 h before injury and 2 h after injury, and administrations were continued for 4 days. Control rats received equivalent injections of the vehicle for Compound 1, at the same time points.
The Morris Water Maze (MWM) test is a spatial navigation task that measures learning and memory in rodents using visual cues. Subjects learn over the course of days to find a hidden platform. A MWM test was conducted two weeks after injury. Male Sprague Dawley rats were allowed to swim in the pool until they reached the platform located in the southwest quadrant of a tank, or until 90 seconds had elapsed. Behavior was tracked by a video camera hanging from above the pool and recorded and analyzed using video track software (ANY-maze).
The expression level of several cytokines in plasma harvested from rats in each treatment group was measured. The samples were received frozen and stored at −80° C. On the day of the experiment, the samples were thawed, diluted four-fold, and analyzed for cytokine expression on a Luminex platform. The samples were analyzed for the cytokines GRO/KC, IFNy, IL-1B, IL-6, IL-10, IL-12p70 and TNFa, using a multipliex kit manufactured by Millipore. […] The biggest change was in IL-10.
Quantitative measures of cell density were collected from anti-NeuN immunolabeled subsections from approximately 2-3 mm anterior to bregma. Regions of interest (ROIs) were drawn (blind to experimental condition) around Layers IV-VI in the cortical region adjacent to the injury site in CCI-treated animals or in the equivalent zone (dorsal cortex) in sham animals. An ROI of similar area was also evaluated in a ventral cortical region of the same section. Cell identification was performed using the cell counting module of Keyence BZ-II Analyzer software. Cell-to-gray matter (CG) area coefficients were determined for each ROI. […] The CCI-induced reduction in CG coefficient was mitigated by treatment with Compound 1 in the ventral cortex (−3% compared to sham; p=0.09). Although the effect of Compound 1 versus vehicle treatment in the ventral cortex is not statistically significant, it is anticipated that this effect would breach statistical significance in a larger study. No effect of Compound 1 was detected in the dorsal cortical region (−32% compared to sham) immediately adjacent to the injury site. The difference in the observed effect of Compound 1 on the ventral region versus the dorsal region may be a threshold effect related to the degree of injury, which was inversely related to the distance from the injury site. Thus, the damage to the dorsal cortical region could be too severe to be rescued by Compound 1 under these conditions.
Immunofluorescence was performed to evaluate the impact of TBI on several pathways of immune response, and to determine if Compound 1 might be mediating its neuroprotective effects via one or more of those pathways. […]

obese Zucker rats = test: Food intake and body weight in Zucker rats; assay type: in vivo
Experimental: Twenty-one (21) male Zucker rats aged 7 months were allocated into 3 groups of N=7 based on equivalent body weights and food intakes. An additional group of N=7 age matched Zucker lean controls were included as a control. Body weights and food and water intakes were measured at approximately the same time each day (14:30-15:30 h). On treatment days, dosing was at 14:30-15:30 h (approximately 2 hours before lights off).
The Zucker obese and lean controls were orally treated with vehicle (10 mL/kg dose volume; 0.5% Pluronic F68 and 0.5% PVP K29/32 in water) on each weekday. Both Compound 2 (1.5 mg/kg and 3 mg/kg) groups were orally treated on each weekday (10 mL/kg dose volume; 0.5% Pluronic F68 and 0.5% PVP K29/32 in water). Prior to the treatment phase, 4 days baseline data were collected. The treatment phase was for 16 days and a washout phase of 6 days was also included.

IMQ-induced psoriasis = test: Imiquimod (IMQ)-induced dermal inflammation/psoriasis model, Study 1; assay type: in vivo, mice; details: 1 μM, Day 1 to Day 13 daily
Description: Forty (40) male BALB/c mice aged 6 to 8 weeks were used with a pretreatment body weight of 22 to 30 g. The BALB/c mice were randomized into four (4) groups of 10 mice per group. A small area (about 2×2 cm^2) of skin on the dorsum of all the animals was neatly shaved. Group-I animals served as Naïve animals. Psoriasis was induced in Groups II to IV [Group II (IMQ; vehicle), Group III (IMQ; […] Animals were observed daily for a period of 13 days for any treatment-related symptoms. The daily observations included body weight, feed intake, skin thickening, scaling, folding, erythema, nasal discharge, movement, respiration, hair, distended abdomen, skin condition, fur, mucous membrane, presence or absence of secretions, eye condition, tail elevation, motor activity, posture and gait. Severity of damage to the dorsal portion of the skin was assessed by assigning erythema, scaling, folding and skin thickening scores based on external observations of skin, according to rubric in Table 9. […] Compound 2 was prepared by dissolving 1.47 mg of Compound 2 in 300 μL of 100% DMSO.

[2] = 1.5-3 mg/kg oral, 16 day treatment period

Structure (SMILES) | plasma IL-10 ([1]; 6 mg/kg) | qualitative visual inspection of whole brains (damage to dorsal-medial cortical tissue) ([1]; 6 mg/kg) | latency to find the hidden platform (MWM test), significance ([1]; 6 mg/kg p.o.) | latency to find the hidden platform (MWM test) compared to vehicle-treated BCCI-injured rats ([1]; 2, 4 and 6 mg/kg p.o.) | cell-to-gray matter (CG) coefficient, NeuN labeling, compared to sham ([1]; dorsal cortical region adjacent to the injury site) [%] | TNFα immunopositive cells in tissue surrounding the injury site ([1]; immunofluorescence) | secondary injury responses (Rat IgG and TNFα labeling) ([1]; immunofluorescence) | cell-to-gray matter (CG) coefficient, NeuN labeling, compared to sham ([1]; ventral cortex) [%] | body weight gain versus Zucker vehicle group (obese Zucker rats; 1.5 mg/kg oral) | body weight gain versus Zucker vehicle group (obese Zucker rats; 3 mg/kg oral) | body weight compared to Zucker control group (obese Zucker rats; [2]) | daily food intake compared to Zucker control group (obese Zucker rats; [2]) | water intake (obese Zucker rats; [2]) | body weight, food and water intake (IMQ-induced psoriasis) | disease activity index / IMQ-induced disease manifestation (IMQ-induced psoriasis)
CC(C)(C)C(=O)NNC(=O)/C=C\n1cnc(-c2cc(C(F)(F)F)cc(C(F)(F)F)c2)n1 [Compound 1, (Z)-3-(3-(3,5-bis(trifluoromethyl)phenyl)-1H-1,2,4-triazol-1-yl)-N′-pivaloylacrylohydrazide] | reduced IL-10 compared to vehicle-treated control group | damage ranging from moderate to minimal | significant effects on days 17 and 18 after injury with 6 mg/kg | dose dependent decrease in the latency to find the hidden platform | −32 | largely absent | reduces secondary injury responses | −3 | – | – | – | – | – | – | –
O=C(/C=C\n1cnc(-c2cc(C(F)(F)F)cc(C(F)(F)F)c2)n1)NNC(=O)CN1CCOCC1 [Compound 2, (Z)-3-(3-(3,5-bis(trifluoromethyl)phenyl)-1H-1,2,4-triazol-1-yl)-N′-(2-morpholinoacetyl)acrylohydrazide] | – | – | – | – | – | – | – | – | no significant difference in weight gain | significant difference in body weight gain; also recorded: lower weight gain | dose-related decrease | dose-related decrease; also recorded: dose dependent decrease | significantly increased water intake | without adversely affecting body weight, food and water intake | diminished IMQ-induced disease manifestation; also recorded: reduction in disease activity index in comparison to the vehicle treated group
